Experiments:
[1] = biological target: Ubiquitin carboxyl-terminal hydrolase 7 (Homo sapiens, UniProt Q93009); assay: Inhibition of USP7 in human RKO cells transfected with p53 luciferase reporter vector assessed as increase in p53-dependent luciferase activity measured after 18 hrs by BrightGlo luciferase assay; type: cell-based
[2] = biological target: Voltage-gated inwardly rectifying potassium channel KCNH2 (Homo sapiens, UniProt Q12809); assay: Inhibition of human ERG
[3] = AUC in Sprague-Dawley rat at 2 mg/kg, po; type: ADME, organism-based; conditions: in vivo
[4] = biological target: T1, Ubiquitin carboxyl-terminal hydrolase isozyme L3 (Homo sapiens, UniProt P15374); assay: Inhibition of human GST-tagged UCHL3 expressed in Escherichia coli assessed as cleavage of Ubiquitin-Rhodamine110-glycine to Ubiquitin and Rhodamine110-glycine using Ubiquitin-Rhodamine110-glycine as substrate by fluorescence based analysis
T1 sequence (P15374 whole entry): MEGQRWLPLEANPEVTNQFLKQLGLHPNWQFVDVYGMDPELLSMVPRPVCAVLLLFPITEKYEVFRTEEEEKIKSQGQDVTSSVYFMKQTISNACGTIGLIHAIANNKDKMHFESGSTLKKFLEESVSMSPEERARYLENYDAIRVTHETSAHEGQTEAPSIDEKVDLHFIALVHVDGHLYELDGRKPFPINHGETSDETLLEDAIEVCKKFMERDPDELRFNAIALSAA

[5] = biological target: Ubiquitin carboxyl-terminal hydrolase 4 (Homo sapiens, UniProt Q13107); assay: Inhibition of human 6His-tagged USP4 expressed in Escherichia coli assessed as cleavage of Ubiquitin-Rhodamine110-glycine to Ubiquitin and Rhodamine110-glycine using Ubiquitin-Rhodamine110-glycine as substrate by fluorescence based analysis
Ubiquitin carboxyl-terminal hydrolase 4, sequence (Q13107 whole entry, the tested form may be a part): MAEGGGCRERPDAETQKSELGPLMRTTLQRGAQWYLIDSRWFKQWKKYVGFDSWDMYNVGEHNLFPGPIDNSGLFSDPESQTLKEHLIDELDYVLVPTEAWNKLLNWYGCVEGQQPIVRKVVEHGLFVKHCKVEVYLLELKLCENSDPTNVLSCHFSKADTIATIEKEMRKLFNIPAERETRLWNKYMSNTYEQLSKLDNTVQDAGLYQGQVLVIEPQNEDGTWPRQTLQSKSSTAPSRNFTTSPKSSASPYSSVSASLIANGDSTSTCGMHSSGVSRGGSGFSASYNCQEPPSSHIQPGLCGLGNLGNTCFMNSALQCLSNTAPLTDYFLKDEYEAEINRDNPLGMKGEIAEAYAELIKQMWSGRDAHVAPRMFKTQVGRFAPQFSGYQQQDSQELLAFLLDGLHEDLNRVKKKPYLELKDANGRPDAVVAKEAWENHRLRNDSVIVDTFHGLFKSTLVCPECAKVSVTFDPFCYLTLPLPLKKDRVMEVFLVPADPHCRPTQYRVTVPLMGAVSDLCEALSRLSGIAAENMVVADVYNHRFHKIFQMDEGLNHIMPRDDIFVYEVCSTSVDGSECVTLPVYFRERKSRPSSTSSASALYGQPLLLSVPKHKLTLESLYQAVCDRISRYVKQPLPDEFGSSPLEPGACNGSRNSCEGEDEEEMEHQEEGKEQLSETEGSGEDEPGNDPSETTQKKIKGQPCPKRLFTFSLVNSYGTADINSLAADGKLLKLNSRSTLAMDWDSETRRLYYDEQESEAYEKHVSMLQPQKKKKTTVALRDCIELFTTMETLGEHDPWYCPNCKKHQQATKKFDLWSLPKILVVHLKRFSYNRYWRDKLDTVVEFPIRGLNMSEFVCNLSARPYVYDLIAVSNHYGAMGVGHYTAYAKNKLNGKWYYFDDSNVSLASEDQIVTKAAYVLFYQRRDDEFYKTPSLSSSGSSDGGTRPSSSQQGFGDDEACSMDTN

[6] = biological target: Ubiquitin carboxyl-terminal hydrolase 6 (Homo sapiens, UniProt P35125); assay: Inhibition of human GST-tagged USP6 CD (529 to 1406 residues) expressed in Sf21 insect cells assessed as cleavage of Ubiquitin-Rhodamine110-glycine to Ubiquitin and Rhodamine110-glycine using Ubiquitin-Rhodamine110-glycine as substrate by fluorescence based analysis
Ubiquitin carboxyl-terminal hydrolase 6, sequence (P35125 whole entry, the tested form may be a part): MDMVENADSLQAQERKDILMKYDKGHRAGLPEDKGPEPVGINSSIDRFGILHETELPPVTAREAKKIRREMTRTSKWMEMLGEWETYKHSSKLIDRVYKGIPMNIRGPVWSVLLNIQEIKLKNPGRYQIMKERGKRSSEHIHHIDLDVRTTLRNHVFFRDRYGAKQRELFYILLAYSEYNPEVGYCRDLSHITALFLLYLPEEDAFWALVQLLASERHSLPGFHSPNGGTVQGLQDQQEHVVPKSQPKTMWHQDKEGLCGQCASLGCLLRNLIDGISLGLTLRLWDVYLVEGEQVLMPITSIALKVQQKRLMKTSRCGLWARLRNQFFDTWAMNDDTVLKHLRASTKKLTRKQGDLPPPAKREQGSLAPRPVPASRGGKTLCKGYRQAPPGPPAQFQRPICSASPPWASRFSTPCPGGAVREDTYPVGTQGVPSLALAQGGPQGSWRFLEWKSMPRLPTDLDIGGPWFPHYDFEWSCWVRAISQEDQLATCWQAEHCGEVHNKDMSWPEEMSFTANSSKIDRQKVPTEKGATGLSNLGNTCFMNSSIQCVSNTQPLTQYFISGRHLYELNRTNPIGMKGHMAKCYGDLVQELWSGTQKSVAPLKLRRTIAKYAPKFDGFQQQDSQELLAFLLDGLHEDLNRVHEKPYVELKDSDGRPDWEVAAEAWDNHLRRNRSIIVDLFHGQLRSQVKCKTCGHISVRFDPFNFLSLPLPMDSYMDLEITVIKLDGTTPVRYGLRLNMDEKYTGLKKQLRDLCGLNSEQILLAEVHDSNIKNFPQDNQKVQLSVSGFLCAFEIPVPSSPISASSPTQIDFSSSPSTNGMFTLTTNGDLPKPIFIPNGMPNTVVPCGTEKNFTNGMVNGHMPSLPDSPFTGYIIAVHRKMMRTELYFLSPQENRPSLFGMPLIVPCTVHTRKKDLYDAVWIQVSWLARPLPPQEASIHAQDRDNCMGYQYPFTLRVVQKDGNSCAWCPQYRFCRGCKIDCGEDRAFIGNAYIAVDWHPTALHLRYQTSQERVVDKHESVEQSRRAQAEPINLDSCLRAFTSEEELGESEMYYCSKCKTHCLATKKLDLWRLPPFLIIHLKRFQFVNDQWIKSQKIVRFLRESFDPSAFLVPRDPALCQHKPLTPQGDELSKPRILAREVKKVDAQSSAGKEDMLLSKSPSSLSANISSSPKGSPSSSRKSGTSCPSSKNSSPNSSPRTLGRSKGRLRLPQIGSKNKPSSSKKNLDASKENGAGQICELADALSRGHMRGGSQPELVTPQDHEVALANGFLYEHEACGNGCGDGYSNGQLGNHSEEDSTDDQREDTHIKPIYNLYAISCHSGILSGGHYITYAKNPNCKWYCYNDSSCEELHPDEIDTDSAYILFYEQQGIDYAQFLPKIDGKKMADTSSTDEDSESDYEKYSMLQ

[7] = biological target: Ubiquitin carboxyl-terminal hydrolase 11 (Homo sapiens, UniProt P51784); assay: Inhibition of USP11 (unknown origin)
Ubiquitin carboxyl-terminal hydrolase 11, sequence (P51784 whole entry, the tested form may be a part): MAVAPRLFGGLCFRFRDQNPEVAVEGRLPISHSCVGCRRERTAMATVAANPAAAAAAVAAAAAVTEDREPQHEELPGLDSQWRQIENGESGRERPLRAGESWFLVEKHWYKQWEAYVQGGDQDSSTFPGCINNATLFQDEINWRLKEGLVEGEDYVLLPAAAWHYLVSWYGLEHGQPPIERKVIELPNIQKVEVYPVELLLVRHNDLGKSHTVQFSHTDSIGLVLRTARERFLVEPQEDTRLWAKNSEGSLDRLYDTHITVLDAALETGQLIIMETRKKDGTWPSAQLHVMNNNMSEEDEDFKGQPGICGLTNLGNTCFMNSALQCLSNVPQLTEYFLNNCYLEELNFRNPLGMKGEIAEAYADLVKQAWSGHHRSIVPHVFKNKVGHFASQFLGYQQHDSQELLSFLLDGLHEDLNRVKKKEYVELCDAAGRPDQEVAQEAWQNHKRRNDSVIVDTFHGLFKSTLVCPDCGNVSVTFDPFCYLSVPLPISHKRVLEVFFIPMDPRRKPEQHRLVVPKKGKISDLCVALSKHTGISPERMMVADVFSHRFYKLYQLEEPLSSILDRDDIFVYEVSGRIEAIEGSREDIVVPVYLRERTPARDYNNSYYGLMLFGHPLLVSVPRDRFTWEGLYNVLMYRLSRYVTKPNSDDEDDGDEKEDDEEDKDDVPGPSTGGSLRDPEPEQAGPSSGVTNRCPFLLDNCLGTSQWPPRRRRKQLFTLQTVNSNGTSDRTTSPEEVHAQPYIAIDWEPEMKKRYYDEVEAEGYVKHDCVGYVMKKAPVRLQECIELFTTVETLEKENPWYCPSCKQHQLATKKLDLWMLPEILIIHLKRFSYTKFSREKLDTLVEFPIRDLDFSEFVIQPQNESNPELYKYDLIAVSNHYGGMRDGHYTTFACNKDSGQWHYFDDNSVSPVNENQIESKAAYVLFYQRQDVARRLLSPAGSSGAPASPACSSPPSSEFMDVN

[8] = biological target: Ubiquitin carboxyl-terminal hydrolase 19 (Homo sapiens, UniProt O94966); assay: Inhibition of human GST-tagged USP19 (1 to 1290 residues) expressed in Escherichia coli assessed as cleavage of Ubiquitin-Rhodamine110-glycine to Ubiquitin and Rhodamine110-glycine using Ubiquitin-Rhodamine110-glycine as substrate by fluorescence based analysis
[9] = biological target: Ubiquitin carboxyl-terminal hydrolase 20 (Homo sapiens, UniProt Q9Y2K6); assay: Inhibition of human GST-tagged USP20 expressed in Sf21 insect cells assessed as cleavage of Ubiquitin-Rhodamine110-glycine to Ubiquitin and Rhodamine110-glycine using Ubiquitin-Rhodamine110-glycine as substrate by fluorescence based analysis
[10] = biological target: Ubiquitin carboxyl-terminal hydrolase 25 (Homo sapiens, UniProt Q9UHP3); assay: Inhibition of human GST-tagged USP25 expressed in Escherichia coli assessed as cleavage of Ubiquitin-Rhodamine110-glycine to Ubiquitin and Rhodamine110-glycine using Ubiquitin-Rhodamine110-glycine as substrate by fluorescence based analysis
[11] = biological target: Ubiquitin carboxyl-terminal hydrolase 28 (Homo sapiens, UniProt Q96RU2); assay: Inhibition of human GST-tagged USP28 expressed in Escherichia coli assessed as cleavage of Ubiquitin-Rhodamine110-glycine to Ubiquitin and Rhodamine110-glycine using Ubiquitin-Rhodamine110-glycine as substrate by fluorescence based analysis
[12] = biological target: Ubiquitin carboxyl-terminal hydrolase 35 (Homo sapiens, UniProt Q9P2H5); assay: Inhibition of USP35 (unknown origin)
Ubiquitin carboxyl-terminal hydrolase 35, sequence (Q9P2H5 whole entry): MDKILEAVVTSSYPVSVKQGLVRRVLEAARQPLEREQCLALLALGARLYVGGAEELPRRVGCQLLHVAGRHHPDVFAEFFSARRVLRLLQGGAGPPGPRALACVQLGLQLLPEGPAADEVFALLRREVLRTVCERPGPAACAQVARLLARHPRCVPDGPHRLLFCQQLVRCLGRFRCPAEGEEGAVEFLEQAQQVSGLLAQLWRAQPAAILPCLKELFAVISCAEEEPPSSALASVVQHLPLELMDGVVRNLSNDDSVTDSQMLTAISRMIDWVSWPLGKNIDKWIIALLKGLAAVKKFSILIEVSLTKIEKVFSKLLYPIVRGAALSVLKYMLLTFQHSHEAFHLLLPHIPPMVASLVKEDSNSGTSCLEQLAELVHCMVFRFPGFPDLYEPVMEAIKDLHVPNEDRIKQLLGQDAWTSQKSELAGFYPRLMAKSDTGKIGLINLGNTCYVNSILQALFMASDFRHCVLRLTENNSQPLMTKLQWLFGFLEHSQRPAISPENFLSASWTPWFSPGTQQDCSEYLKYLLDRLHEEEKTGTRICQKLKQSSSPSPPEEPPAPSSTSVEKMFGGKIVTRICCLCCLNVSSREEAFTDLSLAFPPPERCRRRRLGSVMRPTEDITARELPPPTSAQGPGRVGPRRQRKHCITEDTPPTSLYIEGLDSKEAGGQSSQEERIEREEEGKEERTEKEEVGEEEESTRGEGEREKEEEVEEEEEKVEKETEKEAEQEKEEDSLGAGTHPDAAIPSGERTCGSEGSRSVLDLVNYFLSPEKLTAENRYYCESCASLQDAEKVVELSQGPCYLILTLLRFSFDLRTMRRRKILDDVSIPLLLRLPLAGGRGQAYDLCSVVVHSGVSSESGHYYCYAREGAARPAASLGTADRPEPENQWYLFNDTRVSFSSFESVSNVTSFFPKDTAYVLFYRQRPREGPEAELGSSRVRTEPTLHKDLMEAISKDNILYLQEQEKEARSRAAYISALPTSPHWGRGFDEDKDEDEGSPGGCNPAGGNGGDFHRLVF

[13] = biological target: Ubiquitin carboxyl-terminal hydrolase 45 (Homo sapiens, UniProt Q70EL2); assay: Inhibition of USP45 (unknown origin)
[14] = biological target: Ubiquitin carboxyl-terminal hydrolase CYLD (Homo sapiens, UniProt Q9NQC7); assay: Inhibition of human 6His-tagged CYLD expressed in baculovirus infected Sf21 insect cells assessed as cleavage of Ubiquitin-Rhodamine110-glycine to Ubiquitin and Rhodamine110-glycine using Ubiquitin-Rhodamine110-glycine as substrate by fluorescence based analysis
[15] = biological target: Ubiquitin carboxyl-terminal hydrolase isozyme L5 (Homo sapiens, UniProt Q9Y5K5); assay: Inhibition of human GST-tagged UCHL5 expressed in Escherichia coli assessed as cleavage of Ubiquitin-Rhodamine110-glycine to Ubiquitin and Rhodamine110-glycine using Ubiquitin-Rhodamine110-glycine as substrate by fluorescence based analysis
Ubiquitin carboxyl-terminal hydrolase isozyme L5, sequence (Q9Y5K5 whole entry): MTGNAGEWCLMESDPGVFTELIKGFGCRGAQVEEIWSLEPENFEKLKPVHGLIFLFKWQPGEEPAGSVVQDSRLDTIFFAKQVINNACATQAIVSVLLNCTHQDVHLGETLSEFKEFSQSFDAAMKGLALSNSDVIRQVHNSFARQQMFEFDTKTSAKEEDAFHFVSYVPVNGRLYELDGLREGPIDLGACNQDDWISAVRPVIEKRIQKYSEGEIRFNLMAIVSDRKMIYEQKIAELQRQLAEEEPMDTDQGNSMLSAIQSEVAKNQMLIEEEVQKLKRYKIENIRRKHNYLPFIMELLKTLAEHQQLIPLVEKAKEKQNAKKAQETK

[16] = biological target: Ubiquitin carboxyl-terminal hydrolase BAP1 (Homo sapiens, UniProt Q92560); assay: Inhibition of human GST-tagged BAP1 expressed in Escherichia coli assessed as cleavage of Ubiquitin-Rhodamine110-glycine to Ubiquitin and Rhodamine110-glycine using Ubiquitin-Rhodamine110-glycine as substrate by fluorescence based analysis
Ataxin-3-like protein = Ataxin-3-like protein (Homo sapiens, UniProt Q9H3M9); assay: Inhibition of human 6His-tagged Ataxin-3L expressed in Escherichia coli assessed as cleavage of Ubiquitin-Rhodamine110-glycine to Ubiquitin and Rhodamine110-glycine using Ubiquitin-Rhodamine110-glycine as substrate by fluorescence based analysis
Ataxin-3-like protein, sequence (Q9H3M9 whole entry): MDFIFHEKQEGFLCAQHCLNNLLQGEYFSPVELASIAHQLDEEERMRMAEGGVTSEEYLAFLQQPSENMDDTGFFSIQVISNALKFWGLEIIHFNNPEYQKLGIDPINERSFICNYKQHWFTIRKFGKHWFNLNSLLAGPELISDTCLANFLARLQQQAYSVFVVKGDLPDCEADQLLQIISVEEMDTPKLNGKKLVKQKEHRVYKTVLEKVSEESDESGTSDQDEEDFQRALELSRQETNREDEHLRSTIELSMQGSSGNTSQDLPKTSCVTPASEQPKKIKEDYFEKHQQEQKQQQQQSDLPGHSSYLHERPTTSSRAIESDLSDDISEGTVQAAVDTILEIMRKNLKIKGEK

Josephin-1 = Josephin-1 (Homo sapiens, UniProt Q15040); assay: Inhibition of human His6-tagged JOSD1 expressed in Escherichia coli assessed as cleavage of Ubiquitin-Rhodamine110-glycine to Ubiquitin and Rhodamine110-glycine using Ubiquitin-Rhodamine110-glycine as substrate by fluorescence based analysis
[17] = biological target: Ubiquitin carboxyl-terminal hydrolase 14 (Homo sapiens, UniProt P54578); assay: Inhibition of human His6-tagged USP14 expressed in Escherichia coli using Ubiquitin-Rhodamine110-glycine as substrate by fluorescence based analysis
[18] = biological target: Ubiquitin carboxyl-terminal hydrolase 5 (Homo sapiens, UniProt P45974); assay: Inhibition of human 6His-tagged USP5 expressed in Escherichia coli assessed as cleavage of Ubiquitin-Rhodamine110-glycine to Ubiquitin and Rhodamine110-glycine using Ubiquitin-Rhodamine110-glycine as substrate by fluorescence based analysis

For `Cc1cc(Cl)cc(-c2ccnc3cc(CN4C(=O)C5C(C4=O)C5(C)C)sc23)c1O[C@@H]1CCNC[C@@H]1C` (stereo not given in full), the EC50 [1] was 0.065 µM, the IC50 [2] was 0.4 µM and the AUC [3] was 4700 ng·h/mL. The IC50 [4] was > 10 µM, the IC50 [5] was > 10 µM and the IC50 [6] was > 10 µM. The IC50 [7] was > 10 µM, the IC50 [8] was > 10 µM and the IC50 [9] was > 10 µM. For the same compound, the IC50 [10] was > 10 µM, the IC50 [11] was > 10 µM and the IC50 [12] was > 10 µM. For the same compound, the IC50 [13] was > 10 µM, the IC50 [14] was > 10 µM and the IC50 [15] was > 10 µM. The IC50 [16] was > 10 µM, the IC50 (Ataxin-3-like protein) was > 10 µM and the IC50 (Josephin-1) was > 10 µM. The IC50 [17] was > 10 µM and the IC50 [18] was > 10 µM.

Reference: ChEMBL document CHEMBL4602719, “Discovery of Potent, Selective, and Orally Bioavailable Inhibitors of USP7 with In Vivo Antitumor Activity” (J Med Chem, 2020)
